Measurements published in patent US20220296515A1, “Vancomycin Liposome Compositions and Methods” (Nevakar Injectables Inc., priority 2019, published 2022).
Like-named read-outs stand apart in the source and are kept apart here.

Experiments:
[1] = system: rats; assay: Urinary biomarkers of renal damage (KIM-1, clusterin, osteopontin) in the rat toxicity study; assay type: in vivo; conditions: 150 mg/kg daily for 5 days, FIG. 8
Procedure: (§1) To evaluate toxicity of the liposomal formulations, rats were dosed daily with 150 mg/kg test formulation for 5 days, which is about 10-fold of a dose for human administration (typically 1 g).
(§2) The endpoints for renal damage were urinary biomarkers (KIM-1, Clusterin, Osteopontin), a plasma biomarker (creatinine), and histopathology findings for the kidney. Here, blood sampling was performed at a total volume of 2 mL and clinical chemistry samples were drawn pre-dosing, day 3, and day 5 (0.25 mL each), and pharmacokinetic samples were drawn on Day 1 (4 samples of 0.125 mL), Day 3 (4 samples of 0.125 mL), and Day 5 (2 samples of 0.125 mL). For each animal, at euthanasia, kidneys were formalin fixed and flash frozen in liquid nitrogen. Samples were analyzed for histopathological grading using standard procedures well known in the art.
Further exemplary results are shown for selected urinary markers in FIG. 8. Here, the markers included KIM-1, clusterin, and osteopontin (OPN). […] On the other hand, the markers remained substantially unchanged or only moderately elevated over control in both treatment groups where liposomal compositions according to the inventive subject matter were used.

[2] = Pharmacokinetic study in rat models (single dose, infusion); assay type: in vivo; conditions: 15 mg/kg, infusion time 1 h
From the text: 5. […] Thus, vancomycin was available for a prolonged period and less frequent administration is enabled.

[3] = cited from earlier work
[4] = system: rats; assay: Kidney histopathology in the rat toxicity study; assay type: in vivo; conditions: 150 mg/kg daily for 5 days
Procedure: as §1, §2

Q: With `CN[C@H](CC(C)C)C(=O)N[C@H]1C(=O)N[C@@H](CC(N)=O)C(=O)N[C@H]2C(=O)N[C@H]3C(=O)N[C@H](C(=O)N[C@H](C(=O)O)c4cc(O)cc(O)c4-c4cc3ccc4O)[C@H](O)c3ccc(c(Cl)c3)Oc3cc2cc(c3O[C@@H]2O[C@H](CO)[C@@H](O)[C@H](O)[C@H]2O[C@H]2C[C@](C)(N)[C@H](O)[C@H](C)O2)Oc2ccc(cc2Cl)[C@H]1O` [Vancomycin] as the compound, how does the “urinary markers KIM-1, clusterin, osteopontin (OPN)” value [1] read?
A: significant elevations of all markers

Q: What about the Lambda z [2] of the same compound?
A: 0.879

Q: What about the AUC(0-inf) ([2]; serum, iv) of the same compound?
A: 34800 ng·h/mL

Q: And the Cmax ([2]; serum, iv)?
A: 34600 ng/mL

Q: What about the Tmax ([2]; serum, iv) of the same compound?
A: 0 h

Q: And the half-life ([2]; serum, iv)?
A: 48 min

Q: And the half-life ([3]; humans with normal renal function)?
A: three to six

Q: And the mean plasma concentration ([3]; humans, multiple intravenous infusions of 1 gram over 60 minutes, 11 hours after end of infusion)?
A: 8000 ng/mL

Q: And the “recovered unchanged in urine” value ([3]; within 24 h after a single dose)?
A: 80%-90

Q: What about the kidney histopathological findings [4] of the same compound?
A: significant proximal tubular cell injury and repair
